This is an account of results in patent publication US5795861A, “Methods for regulating gastrointestinal motility” (Amylin Pharmaceuticals Inc., priority 1995, dated 1998).

Series [1] in a line: plasma AC-0137 levels after IV bolus or infusion (clinical study). Type of series: in vivo, human. The note with it: after IV bolus injection. From the text:
Subjects in each dose group underwent a two period crossover to examine intravenous (IV) bolus versus IV infusion of drug. Each period consisted of a three-day confinement to the study unit. On each occasion, the initial day of confinement was allowed for acclimatization to the study unit. The second and third days constituted an imbedded crossover of placebo versus active medication. […] An imbedded cross-over design for the administration of drug and placebo on Days 2 and 3 of this admission was employed in a manner similar to that used during the first admission. The six subjects assigned to the placebo group received placebo on each of the study days.
On study days, intravenous catheters were inserted at least 30 minutes prior to the start of the study. 15 minutes before dosing, the subjects took their usual insulin dose via subcutaneous injection. […] The infusion rate was designed to administer the assigned amount of drug over the two hour period. Thirty minutes later, the subjects ingested their normal breakfasts.

A short description of series [2]: solubility and stability compared to human amylin. Type of series: physicochemical.

On to `CC[C@H](C)[C@H](NC(=O)[C@@H]1CCCN1C(=O)CNC(=O)[C@H](Cc1ccccc1)NC(=O)[C@H](CC(N)=O)NC(=O)[C@H](CC(N)=O)NC(=O)[C@H](CO)NC(=O)[C@H](CO)NC(=O)[C@H](Cc1c[nH]cn1)NC(=O)[C@@H](NC(=O)[C@H](CC(C)C)NC(=O)[C@H](Cc1ccccc1)NC(=O)[C@H](CC(N)=O)NC(=O)[C@H](C)NC(=O)[C@H](CC(C)C)NC(=O)[C@H](CCCNC(=N)N)NC(=O)[C@H](CCC(N)=O)NC(=O)[C@@H](NC(=O)[C@H](C)NC(=O)[C@@H]1CSSC[C@H](NC(=O)[C@@H](N)CCCCN)C(=O)N[C@@H](CC(N)=O)C(=O)N[C@@H]([C@@H](C)O)C(=O)N[C@@H](C)C(=O)N[C@@H]([C@@H](C)O)C(=O)N1)[C@@H](C)O)C(C)C)C(=O)N[C@@H](CC(C)C)C(=O)N1CCC[C@H]1C(=O)N1CCC[C@H]1C(=O)N[C@H](C(=O)N[C@@H](CC(N)=O)C(=O)N[C@H](C(=O)NCC(=O)N[C@@H](CO)C(=O)N[C@@H](CC(N)=O)C(=O)N[C@H](C(=O)N[C@@H](Cc1ccc(O)cc1)C(N)=O)[C@@H](C)O)C(C)C)[C@@H](C)O` [AC-0137, ^25,28,29 Pro-h-amylin], for which, in series [1], the “disappearance of drug from the plasma compartment” value is given as “apparent first-order kinetics”. For the same molecule, the “solubility and stability characteristics” value in series [2] is “more desirable solubility and stability characteristics”.
